We go through 1 compound from patent US11780851B2, “LRRK2 inhibitors” (H. Lundbeck A/S, priority 2021, dated 2023).

Entries after “also recorded” stand apart in the source; their conditions may differ. Read-outs that look alike come from different tables or passages of the source.

The nature of data set [1]: Hepatocyte intrinsic clearance assay. The settings on record: human, pooled donor, cryopreserved hepatocytes, pH 7.4, 0.1 μM, 2 h at 37° C., 1×10^6 hepatocytes/mL; * measured on 3 separate occasions, ** on a single occasion. It is filed as in vitro ADME, human. In a few lines: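 Test compound at 0.1 μM final (0.05% organic) incubated 2 h at 37° C with shaking in supplemented Leibovitz L-15 medium (pH7.4), 1×10^6 hepatocytes/mL final. Samples taken 1–120 min, quenched in acetonitrile, analyzed by LC-MS/MS. CLint derived from slope of % remaining versus time.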

A further data set can be described thus: GSH adduct screening. It is filed as in vitro ADME, human. The conditions noted are these: 1 μM, 3 h at 37° C., HLM 0.5 mg/mL, NADPH, with and without GSH. Here is the method: Test compounds (final concentration 1 μM, 0.25% organic) were incubated for 3 h at 37° C. in commercially sourced, pooled donor, human liver microsomes (HLM, final concentration 0.5 mg/mL) with and without addition of glutathione (GSH; final concentration […]). The metabolic reaction was initiated by addition of microsomal solution to the mixture of cofactor NADPH (final concentration 1 mM), test compound and GSH. After 3 h of incubation in a water bath at 37° C., the reaction was stopped by addition of 0.2% formic acid in acetonitrile, followed by mixing and centrifugation (16000 g for 5 minutes). Supernatant was diluted (1:1) with HPLC water then analyzed by liquid chromatography (LC)-quadrupole time-of-flight mass spectrometry (QTOF-MS). Accurate mass MS and MS/MS spectra from samples with GSH and without GSH, respectively, were compared to identify detectable GSH and/or cysteine related adducts.

Data set [2] is described as follows: Minipig B/P (brain disposition). In kind it is in vivo, female Gottingen minipigs. The conditions noted are these: female, Gottingen, mean ± stdev. On the procedure: Brain disposition of Example 13 was evaluated in female Gottingen minipigs (n=3, body weight range 13-14 kg). […] At the end of infusion (2 h) the minipigs were sacrificed and terminal blood as well as brain samples were taken (n=3). Isolated plasma and brain homogenates were extracted by standard protein precipitation in acetonitrile, containing internal standard, followed by LC-MS/MS analysis using an optimized analytical method. Concentrations of test compound in plasma and brain were quantified against matrix matched calibration standards. The total plasma and brain concentration time data are presented in Table 6 alongside the calculated brain Kp (total brain concentration:total plasma concentration ratio).

As for `[2H]C([2H])([2H])c1c2c(nn1C1CCOCC1)OCCCn1nc(Cl)c3cnc(nc31)N2` [Example 13, 8-Chloro-3-(methyl-d3)-2-(tetrahydro-2H-pyran-4-yl)-2,4,12,13-tetrahydro-11H-5,7-(azenometheno)dipyrazolo[3,4-b:5′,1′-g][1]oxa[4,6,8]triazacycloundecine], the CLint scaled at 0.1 μM in data set [1] was 6 mL/min/kg. For the same compound, the “Adduct detected in GSH supplemented HLMs” value in the data set “GSH adduct screening” is given as “did not form GSH adduct; also recorded: None detected”. Besides, the concentration at 2 h in data set [2] (brain, IV bolus 0.28 mg/kg + IV infusion 0.60 mg/kg, time point 2.00 h, n = 3, read-out: CTotal, brain) stood at 151 ± 11 ng/mL; in data set [2] (plasma, IV bolus 0.28 mg/kg + IV infusion 0.60 mg/kg, time point 2.00 h, n = 3, read-out: CTotal, plasma) it was 93 ± 11 ng/mL. Besides, the Kp at 2 h in data set [2] (intravenous, total brain:total plasma concentration ratio, time point 2.00 h, n = 3) came out at 1.63 ± 0.08. Also, in data set [2] (plasma, IV bolus 0.28 mg/kg + IV infusion 0.60 mg/kg, time point 0.083 h, n = 3, read-out: CTotal, plasma), the concentration at 0.083 h was determined as 95 ± 18 ng/mL. Moreover, the concentration at 0.5 h in data set [2] (plasma, IV bolus 0.28 mg/kg + IV infusion 0.60 mg/kg, time point 0.50 h, n = 3, read-out: CTotal, plasma) amounted to 89 ± 20 ng/mL. In data set [2] (plasma, IV bolus 0.28 mg/kg + IV infusion 0.60 mg/kg, time point 1.00 h, n = 3, read-out: CTotal, plasma), the concentration at 1 h is 91 ± 9 ng/mL. Also, in data set [2] (plasma, IV bolus 0.28 mg/kg + IV infusion 0.60 mg/kg, time point 1.50 h, n = 3, read-out: CTotal, plasma), the concentration at 1.5 h is 106 ± 13 ng/mL. The concentration at 1.83 h in data set [2] (plasma, IV bolus 0.28 mg/kg + IV infusion 0.60 mg/kg, time point 1.83 h, n = 3, read-out: CTotal, plasma) came to 105 ± 8 ng/mL.
